# Data reported in paper PMC6539809, “Development of Oxygen-Bridged Pyrazole-Based Structures as Cannabinoid Receptor 1 Ligands” (Molecules, 2019).
# Key:
# [1] = biological target: T1, CB2 receptor (Mus musculus, UniProt P47936); settings: [3H]-CP-55,940, mouse spleen homogenate; lead compound; read-out: KiCB2; cited from earlier work
# T1 construct: from tissue; host or cells: mouse (CD1) spleen, membrane homogenate
# [2] = test system: rats; parameters: method as in PMID 27521837; settings: i.p. dose of 0.125 mg/kg; cited from earlier work
# [3] = test system: CD1 mice; test: Gastrointestinal transit (GIT), carmine marker; type: in vivo, mouse
# Description: The mouse isolated vas deferens is a nerve-smooth muscle preparation that serves as a highly sensitive and quantitative functional in vitro bioassay for cannabinoid CB1R agonists. The effect of CB1 agonists is related to the action on naturally expressed prejunctional neuronal CB1Rs to inhibit release of the contractile neurotransmitters, noradrenaline and ATP, which is provoked by electrical stimulation. It has been shown that CB1 antagonist derivatives are able to block or reduce the inhibition of the electrically evoked contraction amplitude of the vas deferens induced by CB1 agonists, with parallel dextral shifts in CB1R agonist log concentration-response curves in electrically stimulated tissues. According to previous studies concerning cannabinoid agents, a gastrointestinal transit test was adopted to confirm CB1 antagonism. […] Moreover, the capability of CB1 antagonist compounds both to block the constipation effect induced by cannabinoid agonists and to themselves increase themselves gastrointestinal motility has been reported.
# The same procedure previously reported by Murineddu et al. was adopted to evaluate the effect of the compounds on GIT. CD1 mice weighing 30–35 g were used. Carmine (Sigma Chemical Co, St. Louis, MO, USA) was suspended (6% wt/v) in distilled water containing 0.5% methylcellulose and administered by gavage at the dose of 0.3 mL/mouse. Briefly, after 20 min from carmine administration, mice were sacrificed by cervical dislocation and the stomach and small intestine were removed and the omentum was separated, avoiding stretching. The length of the intestine was measured starting from the pyloric sphincter to the ileocecal junction. The distance travelled by the head of the marker was measured and expressed as a percent of the total length of the small intestine. Using this procedure, the marker was consistently found at approximately 50% of the small intestine, 20 min after its administration to naive mice.
# 20 min later, mice were killed by dislocation cervical and intestines were removed. […] The length of the intestine from the pyloric sphincter to the ileocecal junction and the distance travelled by the carmine front were both measured and recorded. Groups of n = 10 mice were used in each experiment.
# Statistical analyses were performed by one-way ANOVA followed by Newman-Keuls post-hoc comparison.
# [4] = test system: ventral tegmental area (VTA) dopamine neurons projecting to the NAc shell; parameters: method as in PMID 27521837; settings: i.v. administration of high doses; cited from earlier work
# [5] = test system: P-ERK 1/2 expression in mouse neuroblastoma N1E-115 cells (CB1Rs); test: P-ERK 1/2 expression in N1E-115 cells (Western blot); type: cell-based; settings: 5 min pre-treatment with compound (150–200 nM; 1b 200 nM), then WIN 55,212-2 25 nM for 10 min
# Description: Agonist or antagonist activity of the new derivatives towards CB1Rs were assayed through in vitro testing based on the determination of phosphorylated ERK 1/2 (P-ERK 1/2) expression in a mouse neuroblastoma N1E-115 cell line. As previously reported, this cell line expresses CB1Rs but not CB2Rs; moreover, it has been shown that the exposure of N1E-115 cells to the cannabinoid agonists arachidonyl-2-chloroethylamide (ACEA) and WIN 55-212,2 induces a rapid phosphorylation and activation of the ERK 1/2. The addition of CB1 antagonists as SR141716A abolishes the response induced by the cannabinoid agonists.
# N1E-115 cells were grown at 37 °C in humidified 5% CO2 in Dulbecco’s Modified Eagle’s Medium (high glucose supplemented with 10% fetal bovine serum (FBS), 1 μg/mL penicillin-streptomycin, 2 mM L-glutamine, 2.5 μg/mL amphotericin B and 50 μg/mL gentamicin). […] Tested and reference compounds were dissolved in Dulbecco’s phosphate buffered saline (D-PBS) with 1% DMSO and treatments were performed in a volume of 10 μL/mL of cell suspension.
# P-ERK 1/2 expression was determined through Western blot analysis according to the previously reported procedure. One-way ANOVA was performed as a statistical analysis using the Graph Pad Prism program (San Diego, CA, USA).
# The same procedure was adopted to determine CB1 specific antagonism for compounds which had no effect on P-ERK 1/2 expression themselves. In these last cases, WIN55,212-2 at 25 nM as a reference cannabinoid agonist agent and the new CB1 antagonists at 150–200 nM were employed.
# [6] = test system: C57Bl6/J mice; test: Acute food intake in fasted mice; type: in vivo, mouse; settings: for Food intake effect over time: 10 mg/kg i.p., at 2 h and 3 h; for Activity on food intake compared to rimonabant: dose of 10 mg/kg i.p.
# Description: To further evaluate the potential application of these CB1 antagonists in the control of food intake and in obesity treatment, compound 1b was preliminarily tested in comparison with SR141716A in an acute in vivo assay using C57Bl6/J mice. The evaluation was carried out according to the animal model previously reported by Di Marzo [19].
# It is well known that CB1Rs mediate the hyperphagic effect of cannabinoids. […] To test the potential anti-obesity effect of the new CB1 antagonist 1b we performed food intake experiments according to the acute animal model described by Di Marzo [19]. For a comparison we also reported the results concerning the assumed lead compound of this new series, derivative 1a.
# A widely described method was used for the screening of the new CB1 antagonists in the food intake animal model. C57Bl6/J mice weighing 20–25 g were housed individually on a reverse light-dark cycle in a room with temperature and humidity control. The mice were fasted for 18 h before testing. Vehicle or CB1 antagonists were administered by an intraperitoneal injection and 15 min later a known amount of food was presented. Food pellets were weighed after each hour for three hours. Rimonabant was used as internal positive control in order to evaluate the efficacy of each compound. All animal experiments were performed according to the UE (CEE N° 86/609) guidelines for the care and use of experimental animals.
# Two-way ANOVA with Bonferroni post-testing was performed using GraphPad Prism version 5.00 for Windows (GraphPad Software, San Diego CA, USA).
# [7] = biological target: T2, CB1Rs of mouse vas deferens (Mus musculus, UniProt P47746); test: Isolated organ assay: electrically evoked contractions of mouse vas deferens; settings: for Kb: read-out: Antagonist potency pA2 (converted)
# T2 construct: naturally expressed prejunctional neuronal CB1Rs; from tissue; host or cells: isolated vas deferens of male albino CD1 mice
# Description: Vas deferens was obtained from male albino CD1 mice weighing 30 to 40 g. Tissue was mounted in a 10 mL organ bath at an initial tension of 0.5 g using a previously described method [16]. The bath contained Krebs-Henseleit solution (118.2 mM NaCl, 4.75 mM KCl, 1.19 mM KH2PO4, 25.0 mM NaHCO3, 11.0 mM glucose, and 2.54 mM CaCl2), which was kept at 37 °C and bubbled with 95% O2 and 5% CO2. Isometric contractions were evoked by stimulation with 0.5 sec trains of three pulses of 110% maximal voltage (train frequency, 0.1 Hz; pulse duration, 0.5 msec) through platinum electrodes attached to the upper end of each bath and a stainless-steel electrode attached to the lower end. Stimuli were generated using a Grass S88K stimulator and then amplified (multiplexing pulse booster 316S; Ugo Basile, Comerio, Italy) and divided to yield separate outputs to four organ baths. Contractions were monitored using a computer equipped with a data recording and analysis system (PowerLab 400) linked via preamplifiers (QuadBridge) to an F10 transducer (Biological Instruments, Besozzo, Italy). Each tissue was subject to several periods of stimulation. […] The stimulator was then switched off for 15 min, after which the tissues were subjected to further periods of stimulation each lasting 5 min and separated by a stimulation-free period. The compounds to be assayed were added once the contractile responses to electrical stimulation were reproducible. Preparations were exposed to cumulative increasing concentrations of the compounds to obtain concentration-response curves in the case of CB1 agonist (and partial agonist) compounds. […] Inhibition of the electrically evoked twitch response was expressed in percentage terms and was calculated by comparing the amplitude of the twitch response after each addition of the agonist compound (alone or in the presence of a potential CB1 antagonist) with the amplitude detected in absence of the compounds to be assayed (basal value). The pA2 values for competitive antagonism were calculated by Schild regression analysis [37]. Data were plotted as log antagonist concentration versus log [(antagonist concentration/agonist concentration)-1].
# [8] = biological target: T3, CB1 receptor (Mus musculus, UniProt P47746); settings: [3H]-CP 55,940, mouse brain (minus cerebellum) homogenate; lead compound; read-out: KiCB1; cited from earlier work
# T3 construct: from tissue; host or cells: mouse (CD1) brain minus cerebellum, membrane homogenate
# [9] = parameters: method as in PMID 23756200; settings: cited from earlier work
# [10] = test system: obese mice; parameters: method as in PMID 23756200; settings: chronic treatment of obese mice; cited from earlier work
# T2 sequence (P47746 whole entry): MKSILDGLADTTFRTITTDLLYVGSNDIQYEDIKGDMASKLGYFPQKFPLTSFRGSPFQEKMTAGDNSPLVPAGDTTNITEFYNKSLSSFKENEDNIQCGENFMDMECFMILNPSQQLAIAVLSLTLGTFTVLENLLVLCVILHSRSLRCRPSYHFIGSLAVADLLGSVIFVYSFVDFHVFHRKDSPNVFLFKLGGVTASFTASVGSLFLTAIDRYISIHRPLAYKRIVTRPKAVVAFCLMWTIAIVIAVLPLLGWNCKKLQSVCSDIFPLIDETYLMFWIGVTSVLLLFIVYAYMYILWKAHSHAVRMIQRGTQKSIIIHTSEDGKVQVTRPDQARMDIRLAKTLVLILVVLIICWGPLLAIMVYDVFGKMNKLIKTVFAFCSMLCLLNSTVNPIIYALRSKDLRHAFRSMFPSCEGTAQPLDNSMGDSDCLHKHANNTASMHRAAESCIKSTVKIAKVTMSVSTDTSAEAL
# T1 sequence (P47936 whole entry): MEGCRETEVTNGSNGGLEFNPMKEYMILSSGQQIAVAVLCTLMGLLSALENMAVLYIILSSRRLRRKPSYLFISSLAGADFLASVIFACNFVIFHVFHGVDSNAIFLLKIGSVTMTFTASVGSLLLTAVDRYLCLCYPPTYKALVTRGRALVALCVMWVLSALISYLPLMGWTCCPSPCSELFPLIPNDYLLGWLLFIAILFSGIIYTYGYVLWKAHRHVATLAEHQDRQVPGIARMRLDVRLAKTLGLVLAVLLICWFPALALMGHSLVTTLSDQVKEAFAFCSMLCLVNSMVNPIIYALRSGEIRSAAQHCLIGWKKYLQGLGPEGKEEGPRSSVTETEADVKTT
# T3 sequence (P47746 whole entry): as the sequence (P47746 whole entry) above
SMILES,Ki [1],Food intake and body weight [2],Increase in gastrointestinal transit in comparison to vehicle-treated mice ([3]; 0.5–1.0 mg/kg i.p.),"Effect on GIT in combination with WIN 55,212-2 ([3]; WIN 55,212-2 0.5 mg/kg i.p.)","Effect on the WIN-55,212-2 action on VTA dopamine neuron activity [4]","Counteraction of the WIN 55,212-2-induced increase of P-ERK 1/2 expression [5]",Food intake effect over time [6],Observable side effects / behavioural effects ([6]; 20 mg/kg (highest assayed dosage)),Activity on food intake compared to rimonabant [6],"Food intake compared to vehicle ([6]; starting from a dose of 3 mg/kg i.p., fasted mice)",Kb [7],"Change of electrically-evoked contractions versus basal response, compound alone ([7]; up to a concentration of 10^−6 M, 30 min incubation)",Ki [8],Blood-brain barrier (BBB) permeability [9],Food intake and body weight on chronic treatment [10]
O=C(NC1CCCCC1)c1nn(-c2ccc(Cl)cc2Cl)c2c1CCOc1cc(Cl)ccc1-2 [Compound 1b],3725 ± 25 nM,reduced both food intake and body weight,65–70%,significantly blocked,"reverted the effect of the agonist WIN-55,212-2",CB1 antagonist activity,still markedly decreased food intake,absence of observable side effects,Significant increments of the activity,significantly reduced food intake,0.794 nM,No agonist activity,40 ± 7 nM,,
"O=C(NN1CCCCC1)c1nn(-c2ccc(Cl)cc2Cl)c2c1CCOc1cc(Cl)ccc1-2 [Compound 1a, 8-chloro-1-(2,4-dichlorophenyl)-N-piperidin-1-yl-4,5-dihydrobenzo-1H-6-oxa-cyclohepta[1,2-c]pyrazole-3-carboxamide]",> 5000 nM,,,,,,still markedly decreased food intake,,Significant increments of the activity,,7.94 nM,,10.3 ± 0.41 nM,poor,reduction of food intake and body weight
